In PubChem BioAssay (NCI):
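Protocol summary: plate cells (96-well), add compound at 5 concentrations, incubate 48 h, interpolate endpoints linearly. TGI: total growth inhibition.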

What was measured:
Assay in all cases: NCI tumour cell line growth inhibition, 48 h
M19-MEL melanoma = test system: M19-MEL melanoma
DMS 114 small cell lung = test system: DMS 114 small cell lung
LOX IMVI melanoma = test system: LOX IMVI melanoma
K-562 leukemia = test system: K-562 leukemia
OVCAR-5 ovarian = test system: OVCAR-5 ovarian
A498 renal = test system: A498 renal
KM12 colon = test system: KM12 colon
UACC-62 melanoma = test system: UACC-62 melanoma
NCI-H522 lung = test system: NCI-H522 lung
LXFL 529 NSCLC = test system: LXFL 529 NSCLC
CAKI-1 renal = test system: CAKI-1 renal
SNB-75 CNS = test system: SNB-75 CNS
HOP-92 NSCLC = test system: HOP-92 NSCLC
RPMI-8226 leukemia = test system: RPMI-8226 leukemia
SF-268 CNS = test system: SF-268 CNS
COLO 205 colon = test system: COLO 205 colon
SN12C renal = test system: SN12C renal
SW-620 colon = test system: SW-620 colon
SF-295 CNS = test system: SF-295 CNS
ACHN renal = test system: ACHN renal
HCC-2998 colon = test system: HCC-2998 colon
HOP-18 NSCLC = test system: HOP-18 NSCLC
UO-31 renal = test system: UO-31 renal
KM20L2 colon = test system: KM20L2 colon
DMS 273 small cell lung = test system: DMS 273 small cell lung
SK-MEL-5 melanoma = test system: SK-MEL-5 melanoma
HCT-15 colon = test system: HCT-15 colon
MOLT-4 leukemia = test system: MOLT-4 leukemia
U251 CNS = test system: U251 CNS
NCI-H226 lung = test system: NCI-H226 lung
NCI-H23 lung = test system: NCI-H23 lung
IGROV1 ovarian = test system: IGROV1 ovarian
SNB-19 CNS = test system: SNB-19 CNS
SF-539 CNS = test system: SF-539 CNS
HL-60(TB) leukemia = test system: HL-60(TB) leukemia
UACC-257 melanoma = test system: UACC-257 melanoma
M14 melanoma = test system: M14 melanoma
SK-MEL-2 melanoma = test system: SK-MEL-2 melanoma
OVCAR-4 ovarian = test system: OVCAR-4 ovarian
786-0 renal = test system: 786-0 renal
SK-OV-3 ovarian = test system: SK-OV-3 ovarian
MALME-3M melanoma = test system: MALME-3M melanoma
TK-10 renal = test system: TK-10 renal
NCI-H460 lung = test system: NCI-H460 lung
EKVX NSCLC = test system: EKVX NSCLC
SK-MEL-28 melanoma = test system: SK-MEL-28 melanoma
OVCAR-8 ovarian = test system: OVCAR-8 ovarian
HOP-62 NSCLC = test system: HOP-62 NSCLC
RXF 393 renal = test system: RXF 393 renal
A549 NSCLC = test system: A549 NSCLC
XF 498 CNS = test system: XF 498 CNS
OVCAR-3 ovarian = test system: OVCAR-3 ovarian
HT29 colon = test system: HT29 colon
CCRF-CEM leukemia = test system: CCRF-CEM leukemia
HCT-116 colon = test system: HCT-116 colon
SNB-78 CNS = test system: SNB-78 CNS
DLD-1 colon = test system: DLD-1 colon
RXF-631 renal = test system: RXF-631 renal
SR leukemia = test system: SR leukemia

Measured: TGI

COC(=O)[C@H](CC(C)C)NC(=O)[C@H](Cc1ccccc1)N1CC2C=CC1C2 (stereo not given in full)
79.2 µM: RPMI-8226 leukemia
not listed: HCT-116 colon | SNB-78 CNS | DLD-1 colon | RXF-631 renal | SR leukemia
> 100 µM: all other assays above

CCCCCCCCCCNCCSSCc1ccc(Cl)cc1
10.2 µM: U251 CNS
2.9 µM: LXFL 529 NSCLC
4.79 µM: SF-295 CNS
3.72 µM: OVCAR-5 ovarian
4.04 µM: TK-10 renal
28.4 µM: A498 renal
3.08 µM: MOLT-4 leukemia
3.8 µM: OVCAR-8 ovarian
5.14 µM: EKVX NSCLC
7.62 µM: IGROV1 ovarian
3.02 µM: SW-620 colon
6.54 µM: HCT-15 colon
5.27 µM: K-562 leukemia
3.09 µM: OVCAR-4 ovarian
3.64 µM: SF-539 CNS
3.86 µM: SN12C renal
3.07 µM: KM20L2 colon
5.22 µM: XF 498 CNS
3.14 µM: HCT-116 colon
7.15 µM: CAKI-1 renal
3.58 µM: M19-MEL melanoma
24.2 µM: 786-0 renal
20.6 µM: SNB-75 CNS
2.31 µM: UACC-257 melanoma
3.18 µM: NCI-H522 lung
3.74 µM: HT29 colon
1.17 µM: M14 melanoma
11.6 µM: RXF 393 renal
4.84 µM: UO-31 renal
18.5 µM: ACHN renal
1.88 µM: SK-MEL-5 melanoma
2.99 µM: DMS 273 small cell lung
7.69 µM: MALME-3M melanoma
4.87 µM: CCRF-CEM leukemia
3.59 µM: A549 NSCLC
5.95 µM: COLO 205 colon
3.23 µM: DMS 114 small cell lung
8.22 µM: SK-OV-3 ovarian

CN1C(=O)CC2(C)c3cc(O)cc(Br)c3N(C)C12 (stereo not given)
not listed: CAKI-1 renal | RPMI-8226 leukemia | DMS 273 small cell lung | HL-60(TB) leukemia | OVCAR-4 ovarian | DLD-1 colon | RXF-631 renal | SR leukemia
> 100 µM: all other assays above

CC(C)(C)N/N=C(\C(=O)Nc1cccc(Cl)c1)C1C(=O)Nc2ccccc2S1=O (stereo not given)
47.4 µM: MALME-3M melanoma
not listed: K-562 leukemia | OVCAR-5 ovarian | A498 renal | RPMI-8226 leukemia | U251 CNS | HCT-116 colon | SNB-78 CNS
> 100 µM: all other assays above
